{"source": "patent US6596712B2", "about": "“Treatment of carcinomas using squalamine in combination with other anti-cancer agents or modalities” (Genaera Corporation, priority 1996, dated 2003)", "key": {"[1]": {"biological_target": "T1, human NHE3 (Homo sapiens, UniProt P48764)", "T1 construct": "expressed in transfected cells; host or cells: PS 120 NHE-deficient fibroblasts", "T1 sequence (P48764 26-834)": "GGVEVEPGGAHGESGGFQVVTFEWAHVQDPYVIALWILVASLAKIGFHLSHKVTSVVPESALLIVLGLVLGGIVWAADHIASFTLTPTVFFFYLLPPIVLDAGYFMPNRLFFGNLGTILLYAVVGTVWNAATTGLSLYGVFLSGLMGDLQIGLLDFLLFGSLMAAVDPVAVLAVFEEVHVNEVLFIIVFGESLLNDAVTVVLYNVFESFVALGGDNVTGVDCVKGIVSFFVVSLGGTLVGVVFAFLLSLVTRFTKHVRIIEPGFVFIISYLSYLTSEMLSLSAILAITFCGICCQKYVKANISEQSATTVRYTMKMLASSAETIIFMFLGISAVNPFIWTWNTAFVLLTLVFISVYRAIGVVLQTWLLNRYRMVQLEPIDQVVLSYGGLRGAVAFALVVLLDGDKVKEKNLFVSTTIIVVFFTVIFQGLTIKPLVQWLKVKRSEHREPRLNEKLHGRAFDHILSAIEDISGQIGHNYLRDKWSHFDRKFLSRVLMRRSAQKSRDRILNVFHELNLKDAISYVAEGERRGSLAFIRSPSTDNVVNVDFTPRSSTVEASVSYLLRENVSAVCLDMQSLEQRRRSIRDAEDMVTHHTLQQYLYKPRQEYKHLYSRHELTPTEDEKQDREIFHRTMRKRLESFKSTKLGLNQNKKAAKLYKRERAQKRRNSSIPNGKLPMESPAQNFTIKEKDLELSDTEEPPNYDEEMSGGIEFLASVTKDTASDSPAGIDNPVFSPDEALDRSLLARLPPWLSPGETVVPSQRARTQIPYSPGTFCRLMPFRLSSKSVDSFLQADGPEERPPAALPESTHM", "assay": "NHE activity in PS 120 fibroblasts transfected with human NHE3 (BCECF pH change rate)", "type": "cell-based", "method": "The following describes the test used to determine that squalamine inhibits NHE3, but not NHE1 or NHE2. NHE deficient fibroblast cells (PS 120) transfected with an individual human NHE gene were loaded with a pH sensitive dye 2′7′-bis(2-carboxyethyl)-5,6-carboxyfluorescein (BCECF). NHE activity was measured by spectrofluorometric methods using this dye and by amiloride sensitive isotopic ^22Na^+cellular uptake. The cells were acidified by exposure to ammonium chloride in the absence of sodium to eliminate sodium and deactivate the proton pumps. The ammonium chloride was washed out by exposing the cells to tetramethyl ammonium chloride in bicarbonate free medium. […] Sodium then was added back at various concentrations (see the abscissa of FIGS. 5a and 5b) to drive the antiporters (human NHE3 in FIG. 5a and human NHE1 in FIG. 5b). The antiporters were driven at different rates, as evidenced by the cellular pH change rate, depending on the amount of sodium added.\nAs noted above, it has been concluded that squalamine inhibits NHE3 and not NHE1. […] Such inhibitors affect only the absolute number of protons that can be secreted by the cell (i.e., “Vmax”), if one looks at the kinetic characteristics of the inhibition. […] Note the following Table 1, which correlates to data collected in the test of FIG. 5a."}, "[2]": {"system": "tumor induced capillary formation in rabbit cornea", "assay": "Rabbit corneal micropocket assay (VX2 carcinoma stimulus)", "type": "in vivo", "details": "for reduction of Angiogenesis Index (AI) vs untreated eyes: pellet 20% squalamine", "excerpt": "In determining whether a compound is antiangiogenic, the rabbit corneal micropocket assay is an accepted standard test. In this test, an incision is made in one rabbit cornea, and a stimulus is placed in the incision. The stimulus is used to induce blood vessel formation in the normally avascular corneal region. As one example, a solid tumor in a polymeric matrix can be placed in the cornea as the stimulus because the tumor will release a number of angiogenic growth factors to stimulate new capillary growth. The tumor-derived angiogenic growth factors stimulate the endothelial cells at the scleral junction in the eye to initiate blood vessel growth toward the stimulus. A second polymer pellet (e.g., an ethylene/vinyl acetate copolymer) is placed between the scleral junction and the stimulus. This polymer pellet is either empty (a negative control test pellet), or it contains a compound whose antiangiogenic characteristics are to be tested. The polymer pellet is used to provide a controlled release of the material to be studied. Because of the avascular cornea background in the rabbit cornea, one can visually assess the results qualitatively. In addition, the number of blood vessels can be counted and their length, etc., can be measured to provide a more quantitative evaluation of the results.\nThe VX2 rabbit carcinoma was implanted in 26 rabbit eyes, in the normally avascular corneal region, to act as an angiogenesis stimulus. […] The eyes were examined weekly using a slit lamp stereomicroscope for three weeks after tumor implantment, and the Angiogenesis Index (“AI”) was calculated (this calculation will be described in more detail below with reference to FIG. 8). […]\nTo provide a quantitative evaluation, the Angiogenesis Index (“AI”) of each eye was determined. […]\nThe vessel length (“Lvessel”) was then measured in each cornea. The vessel length is the length of the longest vessel measured from the cornea-scleral junction to the distal edge of the longest vessel growth. The Angiogenesis Index then is determined from these measurements by the following equation: [formula]"}, "[3]": {"system": "human brain capillary endothelial cells", "assay": "Growth factor stimulated growth of human brain capillary endothelial cells", "type": "cell-based", "excerpt": "Thus, as the tumor puts out a variety of different growth factors, squalamine has an inhibitory effect on several."}, "[4]": {"system": "9L gliosarcoma tumors (9L glioma)", "assay": "9L glioma flank study", "type": "in vivo, Fisher 344 rats", "details": "Day 25 or 26 after implantation, treatment from Day 5 per Table 4", "method": "Four groups of rats (twenty total Fisher 344 rats, 200 g) were given s.q. transplants of 1 mm3 9L gliosarcoma tumors (9L glioma) on Day 0. The tumors were implanted in the rat flanks to avoid complications relating to adequate brain levels of squalamine. Randomization and treatment began on Day 5 according to the following scheme:\nOn Day 25 or 26 after tumor implantation, the tumor size was measured directly. The tumor size (i.e., its volume “V”) was estimated based on volumetric calculations determined from the measured length (“L”), width (“W”), and height (“H”) of the tumor (Vtumor spheroid˜0.5 ×L×W×H). The tumor volumes shown in Table 5 represent the mean tumor volumes for each treatment group for those animals that survived to the end of the experiment."}, "[5]": {"system": "H460", "assay": "H460 lung tumor xenograft with carboplatin", "type": "in vivo, nude BALBc mice", "details": "carboplatin 60 mg/kg i.p. single dose, squalamine 20 mg/kg once daily for 5 days", "method": "(§1) About 5×10^6 cells from each of two human lung tumor lines, H460 (a rapidly proliferating large cell carcinoma cell line, ATCC HTB-177) and Calu-6 (an anaplastic carcinoma, ATCC HTB-56), were inoculated subcutaneously in the right foreleg of nude BALBc mice. Once tumors were visible (3-5 days) with a mean volume of approximately 50-80 mm^3, mice were treated intraperitoneally with 60 mg/kg carboplatin (single dose) or 20 mg/kg/squalamine (once daily for 5 days) or a combination of carboplatin and squalamine. There were 8 mice per group. Tumor growth inhibition was scored by quantifying the size of tumors once control tumors reached a size of 1.0 gram and determining the ratio of mean treated tumor size to mean control tumor size (T/C). Tumor growth inhibition was then scored as 100% x [1-(T/C)]. A separate antitumor activity variable, tumor growth delay, was scored for the tumors by determining the length of time it required for the mean tumor size in a treatment group to reach a size of 500 mm^3 (B. A. Teicher et al., Anticancer Research 18, 2567-2574 (1998)). The tumor growth inhibition seen with carboplatin plus squalamine was greater than that seen with carboplatin or squalamine alone. The relative inactivity of squalamine as a single agent by this assay endpoint supports the idea that squalamine is synergistic with carboplatin in the inhibition of these two human lung tumor xenografts. Similarly, it was determined that squalamine enhanced the tumor growth delay caused by carboplatin by an enhancement factor of >2.3 (Table 7)."}, "[6]": {"system": "Calu-6", "assay": "Calu-6 lung tumor xenograft with carboplatin", "type": "in vivo, nude BALBc mice", "details": "carboplatin 60 mg/kg i.p. single dose, squalamine 20 mg/kg once daily for 5 days", "method": "as §1"}}, "data": [{"smiles": "CC(C)[C@@H](CC[C@@H](C)[C@H]1CC[C@H]2[C@@H]3[C@H](O)C[C@H]4C[C@@H](NCCCNCCCCN)CC[C@]4(C)[C@H]3CC[C@]12C)OS(=O)(=O)O", "note": "[Squalamine, squalamine]", "values": [{"measurement": "effect on human NHE3 antiporter (pH change rate)", "setting": "[1]; 7 μg/ml squalamine, acid loaded cells", "value": "inhibits human NHE3"}, {"measurement": "time before NHE3 inhibition effect was observed", "setting": "[1]; transfected cells", "value": "at least 30 minutes"}, {"measurement": "reduction of Angiogenesis Index (AI) vs untreated eyes", "setting": "[2]; Day 14", "value": 37, "unit": "%"}, {"measurement": "reduction of Angiogenesis Index (AI) vs untreated eyes", "setting": "[2]; Day 21", "value": 43, "unit": "%"}, {"measurement": "vasculature of tumors in sectioned corneas", "setting": "[2]; histology after the test", "value": "essentially no vasculature associated with those tumors"}, {"measurement": "growth stimulation induced by b-FGF, PDGFbb, scatter factor, conditioned tumor media, human brain cyst fluid", "setting": "[3]", "value": "interfere with growth stimulation"}, {"measurement": "% Reduction (based on control volume)", "setting": "[4]", "value": 81.7, "unit": "%"}, {"measurement": "Mean Tumor volume", "setting": "[4]", "value": "3,347 mm^3"}, {"measurement": "% Reduction (based on control volume)", "setting": "[4]; listed as squalamine", "value": 81.7, "unit": "%"}, {"measurement": "Tumor Growth Inhibition (T/C)", "setting": "[5]", "value": 6, "unit": "%"}, {"measurement": "Tumor Growth Inhibition (T/C)", "setting": "[6]", "value": 8, "unit": "%"}]}]}
